{
  "source": "patent US12351565B2",
  "about": "“Aromatic compound and preparation method therefor and use thereof” (SHANGHAI JIANHE PHARMACEUTICAL & TECHNOLOGY CO. LTD., priority 2018, dated 2025)",
  "key": {"[1]": {"details": "in mice, background statement; cited from earlier work"}, "[2]": {"details": "cited from earlier work"}, "[3]": {"details": "rats, literature (Journal of Psychopharmacology, 2019, 33, 12-24), cited from earlier work"}, "C57 mice [4]": {"tested_on": "C57 mice", "assay": "Forced swimming experiment, oral administration to mice", "format": "in vivo", "details": "inhibition of immobility time, C57 mice", "outline": "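Male C57 mice (6 weeks) dosed once orally at 20 mg/kg in 0.9% NaCl, tested 1 h and 24 h later after a 10 min pre-swim the day before. Immobility over the last 4 min of a 6 min swim (water 23-25° C); inhibition rate (%) calculated against blank group at each time.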"}, "C57 mice [5]": {"tested_on": "C57 mice", "assay": "Forced swimming experiment, intraperitoneal administration to mice", "format": "in vivo", "details": "for inhibition in vivo at 10 mg/kg: Mus musculus, ip", "experimental": "The forced-swimming test is currently the most widely used classic method to evaluate the antidepressant effects of compounds in rodents. […] The time in immobile state of experimental animal is observed and recorded, which can be used to evaluate the effect of antidepressant compounds.\n1 h and 24 h after a single intraperitoneal administration of 10 mg/kg, forced swimming tests were respectively carried out to investigate the effects of different compounds on depression-like behaviors of C57 mice.\nExperimental animals were 6-week aged C57 mice, male, and C57 mice were purchased from Shanghai SLAC Laboratory Animal Co., Ltd., with a body weight of 20.45±0.19 g. Before the experiment, they arrived at the Animal Feeding Center of Shanghai Institute of Materia Medica, Chinese Academy of Sciences (Animal Production License: SCXK9[Shanghai]2004-0002, usage license: SYXK[Shanghai]2003-0029), and adapted for 3 days or more in animal facilities. They were bred at 6 animals/cage. The breeding environment was room temperature 23±0.2° C., with 12/12 hours alternation of day and night. Before the behavioral test, the animals should be moved to the behavioral test operation room 2 hours in advance to adapt to the environment and reduce their tension.\nPreparation of the test product: each test compound was accurately weighed and dissolved in 0.9% NaCl solution, mixed thoroughly, and prepared as a 1 mg/ml solution, set aside.\n24 hours before the administration, the mice were placed in a cylindrical tank to adapt to the aquatic environment for 10 min. On the day of the behavioral test, the animals were respectively administered intraperitoneally once at 1 h and 24 h before the behavioral test. The mice were placed individually into a cylindrical glass tank with a height of 30 cm and a diameter of 20 cm. The water depth in the tank was 15 cm, so that the animals could not escape from the glass tank and their feet and tails could not touch the bottom of the tank, the water temperature was 23° C.-25° C. A 6 minute video was taken after the mouse entered into water. Since most animals were very active in the first two minutes, the immobility time in the following 4 minute were calculated (criterion of immobility: the mouse stops struggling in the water, stays still and has small limbs movement to maintain balance or to keep a floating state).\nThe antidepressant effect of a compound was evaluated by the ability of the compound to reduce the immobility time of the animal in the forced swimming test as compared with the blank group. The shorter the immobility time of the animal to be tested, the higher the inhibition rate and the stronger the antidepressant activity. Inhibition rate1 h(%)=immobility time(blank, 1 h)−immobility time(administration, 1 h)/immobility time(blank, 1 h)×100% Inhibition rate24 h(%)=immobility time(blank, 24 h)−immobility time(administration, 24 h)/immobility time(blank, 24 h)×100%"}, "[6]": {"assay": "In vivo pharmacokinetic experiment in mice", "details": "C57 mice", "experimental": "Healthy male C57 mice were randomly divided into groups with 3 mice in each group, and the test compounds were administrated intragastrically or by intravenous injection. See Table 6 below for specific arrangements:\nEach test compound was dissolved in physiological saline to prepare a certain concentration of solution for administration.\nOne day before administration, the mice were fasted and allowed to drink freely for 12-14 h. The mice were fed 4 h after administration.\n0.030 mL of blood was took from each animal each time through the orbit, and anticoagulated with EDTAK2. The collection time points were as follows: in PO group, 5 min, 15 min, 30 min, 1 h, 2 h, 4 h, 6 h, 8 h, 24 h after administration of test substance; in IV group, 2 min, 5 min, 15 min, 30 min, 1 h, 2 h, 4 h, 6 h, 8 h, 24 h after administration of test substance. After blood samples were collected, they were placed on ice and centrifuged to separate the plasma within 30 minutes (centrifugation conditions: 5000 rpm, 10 minutes, 4° C.). The sample were stored at −80° C. before analysis."}, "[7]": {"details": "brain tissue, 50 mg/kg p.o., literature (Journal of Psychopharmacology, 2019, 33, 12-24)"}, "[8]": {"details": "male, mouse, iv, 5 mg/kg i.v., plasma"}, "[9]": {"details": "male, mouse, po, 20 mg/kg p.o., plasma"}},
  "note": "Read-outs that look alike come from different tables or passages of the source.",
  "data": [
    {"smiles": "Cl.N[C@@]1(c2ccccc2Cl)CCC[C@@H](O)C1=O", "note": "[(2R,6R)-HNK, (2R, 6R)-HNK, reference compound]", "values": [
      {"measurement": "T1/2", "setting": "[1]", "value": "< 60", "unit": "min"},
      {"measurement": "Brain tissue concentration", "setting": "[2]; 10 mg/kg intraperitoneally, literature (Nature, 2016, 533, 481-486; Nature, 2017, 546, E1-E5)", "value": 2562, "unit": "ng/g"},
      {"measurement": "Brain tissue concentration", "setting": "[2]; 50 mg/kg p.o., 10 min, literature (Journal of Psychopharmacology, 2019, 33, 12-24)", "value": "6490 to 8600", "unit": "ng/g"},
      {"measurement": "AUC0-∞", "setting": "[2]; [7]", "value": "2850 to 5190", "unit": "ng·h/g"},
      {"measurement": "T1/2", "setting": "[2]; [7]", "value": 42, "unit": "min"},
      {"measurement": "AUC0-∞", "setting": "[3]; 10 mg/kg i.v.", "value": 6270, "unit": "ngh/mL"},
      {"measurement": "CL", "setting": "[3]; 10 mg/kg i.v.", "value": 27, "unit": "mL/min/kg"},
      {"measurement": "T1/2", "setting": "[3]; 10 mg/kg i.v.", "value": 480, "unit": "min"},
      {"measurement": "Vss", "setting": "[3]; 10 mg/kg i.v.", "value": 7.5, "unit": "L/kg"},
      {"measurement": "AUC0-∞", "setting": "[3]; 10 mg/kg p.o.", "value": 2650, "unit": "ngh/mL"},
      {"measurement": "Cmax", "setting": "[3]; 10 mg/kg p.o.", "value": 1500, "unit": "ng/mL"},
      {"measurement": "F", "setting": "[3]; 10 mg/kg p.o.", "value": 42, "unit": "%"},
      {"measurement": "T1/2", "setting": "[3]; 10 mg/kg p.o.", "value": 414, "unit": "min"},
      {"measurement": "Tmax", "setting": "[3]; 10 mg/kg p.o.", "value": 10, "unit": "min"},
      {"measurement": "1 h inhibition rate", "setting": "C57 mice [4]; forced swimming 1 h after single oral (intragastric) 20 mg/kg", "value": "18.4 ± 1.6", "unit": "%"},
      {"measurement": "24 h inhibition rate", "setting": "C57 mice [4]; forced swimming 24 h after single oral (intragastric) 20 mg/kg", "value": "19.6 ± 4.4", "unit": "%"},
      {"measurement": "inhibition in vivo at 10 mg/kg", "setting": "C57 mice [5]; 1 h, read-out: 1 h inhibition rate", "value": 31.1, "unit": "%"},
      {"measurement": "inhibition in vivo at 10 mg/kg", "setting": "C57 mice [5]; 24 h, read-out: 24 h inhibition rate", "value": 27.4, "unit": "%"},
      {"measurement": "1 h inhibition rate", "setting": "C57 mice [5]; inhibition of immobility time, forced swimming 1 h after single intraperitoneal 10 mg/kg, C57 mice", "value": "31.1 ± 4.0", "unit": "%"},
      {"measurement": "24 h inhibition rate", "setting": "C57 mice [5]; inhibition of immobility time, forced swimming 24 h after single intraperitoneal 10 mg/kg, C57 mice", "value": "27.4 ± 3.9", "unit": "%"},
      {"measurement": "AUC0-t", "setting": "[6]; 5 mg/kg i.v., plasma", "value": 2085, "unit": "ngh/mL"},
      {"measurement": "AUC0-∞", "setting": "[6]; 5 mg/kg i.v., plasma", "value": 2096, "unit": "ngh/mL"},
      {"measurement": "F", "setting": "[6]; 20 mg/kg p.o. vs 5 mg/kg i.v.", "value": 66.8, "unit": "%"},
      {"measurement": "AUC0-t", "setting": "[6]; 20 mg/kg p.o., plasma", "value": 5589, "unit": "ngh/mL"},
      {"measurement": "AUC0-∞", "setting": "[6]; 20 mg/kg p.o., plasma", "value": 5599, "unit": "ngh/mL"},
      {"measurement": "MRT", "setting": "[6]; [8]", "value": 23.4, "unit": "min"},
      {"measurement": "half-life", "setting": "[6]; [8]", "value": 20.4, "unit": "min"},
      {"measurement": "clearance", "setting": "[6]; male, mouse, plasma, iv, 5 mg/kg i.v.", "value": 40.7, "unit": "mL/min/kg"},
      {"measurement": "Vd", "setting": "[6]; male, mouse, plasma, iv, 5 mg/kg i.v., read-out: Vss", "value": 0.94, "unit": "L/kg"},
      {"measurement": "Cmax", "setting": "[6]; [9]", "value": 7180, "unit": "ng/mL"},
      {"measurement": "MRT", "setting": "[6]; [9]", "value": 52.5, "unit": "min"},
      {"measurement": "Tmax", "setting": "[6]; [9]", "value": 5, "unit": "min"},
      {"measurement": "half-life", "setting": "[6]; [9]", "value": 55.8, "unit": "min"}
    ]}
  ]
}
